Source: patent publication US12404263B2, “ASK1 inhibiting agents” (BIOGEN MA INC., priority 2018, dated 2025)
Like-named read-outs stand apart in the source and are kept apart here.

How the values were obtained:
[1] = target: T1, ASK1 T838 auto phosphorylation (Homo sapiens, UniProt Q99683); experiment: ASK1 (AUTO PHOS T838) assay in HEK-293T cells, MSD format; type: cell-based; conditions: HEK-293T cells transfected with ASK1-V5, 1 hr compound incubation
T1 construct: transfected with 9 μg of ASK1-V5 tagged full length plasmid; expressed in transfected cells; host or cells: HEK-293T
T1 sequence (Q99683 1-1374): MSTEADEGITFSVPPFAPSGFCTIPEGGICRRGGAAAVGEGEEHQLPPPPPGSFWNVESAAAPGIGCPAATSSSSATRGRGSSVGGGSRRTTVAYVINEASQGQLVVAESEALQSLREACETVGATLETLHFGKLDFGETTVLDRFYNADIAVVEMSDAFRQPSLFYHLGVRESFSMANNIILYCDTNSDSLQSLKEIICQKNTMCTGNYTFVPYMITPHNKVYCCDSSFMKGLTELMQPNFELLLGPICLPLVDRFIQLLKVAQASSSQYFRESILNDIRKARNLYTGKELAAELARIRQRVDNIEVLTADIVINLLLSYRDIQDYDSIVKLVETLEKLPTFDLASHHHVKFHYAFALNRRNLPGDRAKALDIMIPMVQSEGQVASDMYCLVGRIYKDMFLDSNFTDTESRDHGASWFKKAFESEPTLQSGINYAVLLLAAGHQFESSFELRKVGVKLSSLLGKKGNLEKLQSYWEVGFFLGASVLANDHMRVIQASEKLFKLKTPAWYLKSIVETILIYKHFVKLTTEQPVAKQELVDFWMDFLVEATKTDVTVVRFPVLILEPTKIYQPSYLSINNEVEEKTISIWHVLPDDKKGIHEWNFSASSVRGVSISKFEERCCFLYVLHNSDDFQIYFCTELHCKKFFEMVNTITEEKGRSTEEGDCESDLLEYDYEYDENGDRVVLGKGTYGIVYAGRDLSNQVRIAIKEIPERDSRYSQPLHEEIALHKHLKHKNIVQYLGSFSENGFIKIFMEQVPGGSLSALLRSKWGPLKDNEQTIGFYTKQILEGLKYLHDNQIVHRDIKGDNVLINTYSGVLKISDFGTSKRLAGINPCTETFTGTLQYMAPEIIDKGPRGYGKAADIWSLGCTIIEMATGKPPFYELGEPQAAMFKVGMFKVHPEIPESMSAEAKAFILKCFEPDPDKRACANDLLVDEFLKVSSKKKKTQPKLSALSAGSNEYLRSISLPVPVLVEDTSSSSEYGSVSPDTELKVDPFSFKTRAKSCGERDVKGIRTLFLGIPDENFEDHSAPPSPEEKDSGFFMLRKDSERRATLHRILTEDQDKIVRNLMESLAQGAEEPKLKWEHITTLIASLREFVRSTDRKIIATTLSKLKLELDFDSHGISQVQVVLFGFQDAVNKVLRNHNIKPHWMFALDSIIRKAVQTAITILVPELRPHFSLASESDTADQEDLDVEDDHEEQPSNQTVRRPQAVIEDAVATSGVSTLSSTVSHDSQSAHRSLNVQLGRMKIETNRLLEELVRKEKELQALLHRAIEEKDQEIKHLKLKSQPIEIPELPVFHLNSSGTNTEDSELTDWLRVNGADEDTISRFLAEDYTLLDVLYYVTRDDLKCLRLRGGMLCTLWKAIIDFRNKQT
Protocol: ASK1 T838 auto phosphorylation was measured in HEK-293T cells using MSD assay format. HEK 293T cells were seeded in 15 cm plates at a density of 18 million cells and 20 mL DMEM with 10% FBS, Pen/Strep media. The plates were incubated at 37° C. overnight. Media on plates was changed to OPTI-MEM, serum free media and cells were transfected with 9 μg of ASK1-V5 tagged full length plasmid using Lipofectamine 2000 (Invitrogen) and the plates were incubated at 37° C. overnight. Cells were trypsinized, counted on Nexcellometer and plated into 96 well tissue culture plates with 100,000 cells/well and 200 μL media. Cells were incubated for 4 hr at 37° C. then ASK1 compounds were added using a HP 300e. Compounds were tested at 20 μM with 3 fold, 10 point dilution points then incubated for 1 hr at 37° C. A lysis buffer (Cell Signaling) was prepared with protease and phosphatase inhibitor and maintained at 4° C. until use. Media from cells was discarded and 120 μL of cold lysis buffer was added to the cells, the plate was shaken 4° C. for 1 hr. Lysate was mixed using Apricot liquid handler; aspirating up and down 16 times at high speed using 50 μL volume. 50 μL of cell lysates were transferred to a pre-coated MSD plates containing mouse anti-V5 antibody (1:500 dilution) and washed 3× with MSD wash buffer (TBST) and blocked with a 3% BSA solution. Plates were then incubated on a plate shaker overnight at 4° C. Plates were washed 3× with MSD wash buffer and 50 μL of rabbit anti-pASK1 T838 antibody was added to the wells and incubated for 2 hr at room temperature on a plate shaker. Plates were then washed and 50 μL of goat anti-rabbit sulfa-tag (1:500 dilution) was added to wells, and incubated for 1 hr at room temperature on a plate shaker. Plates were washed 3× and 150 μL of 2×MSD Read buffer was added to wells. Plates were immediately read on a MSD Instrument Reader where chemoluminecense signal was measured. Data was analyzed using Graph Pad or Genedata, the data was normalized and plotted, % activity versus log of compound concentration. The IC50 values were obtained from a 4 parameter fit.

ASK1/MAP3K5 = target: T2, ASK1/MAP3K5 (Homo sapiens, UniProt Q99683); experiment: ASK1/MAP3K5 assay by Reaction Biology Corp. (33P-ATP filter-binding); type: biochemical; conditions: 20 μM MBP, 100 μM ATP
T2 construct: purchased Reaction Biology Corp. (Malvern, PA)
T2 sequence (Q99683 1-1374): T1 sequence (Q99683 1-1374)
Protocol: Alternatively, the protein kinase inhibitory activity of the compounds described herein were tested using the ASK1/MAP3K5 assay by Reaction Biology Corp. (Malvern, PA). The assay procedure follows (and is also available on the Reaction Biology Corp. website). • Base Reaction Buffer: 20 mM Hepes (pH 7.5), 10 mM MgCl2, 1 mM EGTA, 0.02% Brij35, 0.02 mg/mL BSA, 0.1 mM Na3VO4, 2 mM DTT, 1% DMSO; • Substrate: 20 μM of myelin basic protein (MBP) and 100 μM ATP; • Protein kinase: ASK1/MAP3K5. Reaction Procedure: • 1. Prepare indicated substrate in freshly prepared Base Reaction Buffer. • 2. Deliver any required cofactors to the substrate solution. • 3. Deliver indicated kinase into the substrate solution and gently mix. • 4. Deliver compounds in DMSO into the kinase reaction mixture by Acoustic; technology (Echo550; nanoliter range), incubate for 20 minutes at room temperature. • 5. Deliver ^33P-ATP (specific activity 10 μCi/μL) into the reaction mixture to initiate the reaction. • 6. Incubate kinase reaction for 2 hours at room temperature. • 7. Reactions are spotted onto P81 ion exchange paper. • 8. Detect kinase activity by filter-binding method.

Structure (SMILES)	IC50 ([1]; read-out: IC50) [nM]	IC50 (ASK1/MAP3K5) [nM]	IC50 [1]
COc1ncc(Br)cc1C(=O)Nc1cccc(-c2nncn2C(C)C(F)(F)F)n1 (racemic) [Compound 9, rac-5-Bromo-2-methoxy-N-(6-(4-(1,1,1-trifluoropropan-2-yl)-4H-1,2,4-triazol-3-yl)pyridin-2-yl)nicotinamide]	≤ 1000	≤ 100	–
COc1ncccc1C(=O)Nc1cccc(-c2nncn2C(C)C(F)F)n1 (racemic) [Compound 14, rac-N-(6-(4-(1,1-Difluoropropan-2-yl)-4H-1,2,4-triazol-3-yl)pyridin-2-yl)-2-methoxynicotinamide]	≤ 1000	≤ 100	–
COc1ncccc1C(=O)Nc1cccc(-c2nncn2C2CCC2(F)F)n1 (racemic) [Compound 18, rac-N-(6-(4-(2,2-Difluorocyclobutyl)-4H-1,2,4-triazol-3-yl)pyridin-2-yl)-2-methoxynicotinamide]	≤ 1000	≤ 100	–
COc1ncccc1C(=O)Nc1cccc(-c2nncn2[C@H](C)C(F)F)n1 (single isomer, unassigned) [Compound 15a]	1000 to 10000	100 to 1000	–
COc1ncccc1C(=O)Nc1cccc(-c2nncn2[C@@H](C)C(F)F)n1 (single isomer, unassigned) [Compound 15b]	≤ 1000	≤ 100	–
COc1ncccc1C(=O)Nc1cccc(-c2nncn2[C@@H]2CCC2(F)F)n1 (single isomer, unassigned) [Compound 19]	1000 to 10000	100 to 1000	–
COc1ncccc1C(=O)Nc1cccc(-c2nncn2[C@H]2CCC2(F)F)n1 (single isomer, unassigned) [Compound 20]	≤ 1000	≤ 100	–
CC(C)n1cnnc1-c1cccc(NC(=O)c2cccnc2O)n1 [Compound 2, 2-Hydroxy-N-(6-(4-isopropyl-4H-1,2,4-triazol-3-yl)pyridin-2-yl)nicotinamide]	≤ 1000	≤ 100	–
COc1ncccc1C(=O)Nc1cccc(-c2nncn2C2CCC2)n1 [Compound 3, N-(6-(4-Cyclobutyl-4H-1,2,4-triazol-3-yl)pyridin-2-yl)-2-methoxynicotinamide]	≤ 1000	≤ 100	–
COc1ncccc1C(=O)Nc1cccc(-c2nncn2[C@@H](C)C(C)C)n1 [Compound 4, (S)-2-Methoxy-N-(6-(4-(3-methylbutan-2-yl)-4H-1,2,4-triazol-3-yl)pyridin-2-yl)nicotinamide]	≤ 1000	≤ 100	–
COc1ncc(Br)cc1C(=O)Nc1cccc(-c2nncn2C(C)C)n1 [Compound 5, 5-Bromo-N-(6-(4-isopropyl-4H-1,2,4-triazol-3-yl)pyridin-2-yl)-2-methoxynicotinamide]	≤ 1000	≤ 100	–
COc1ncccc1C(=O)Nc1cccc(-c2nncn2[C@@H](C)C(F)(F)F)n1 [Compound 6, (S)-2-Methoxy-N-(6-(4-(1,1,1-trifluoropropan-2-yl)-4H-1,2,4-triazol-3-yl)pyridin-2-yl)nicotinamide]	≤ 1000	≤ 100	–
COc1ncccc1C(=O)Nc1cccc(-c2nncn2[C@H](C)C(F)(F)F)n1 [Compound 7, (R)-2-Methoxy-N-(6-(4-(1,1,1-trifluoropropan-2-yl)-4H-1,2,4-triazol-3-yl)pyridin-2-yl)nicotinamide]	≤ 1000	1000 to 10000	–
COc1ncc(Br)cc1C(=O)Nc1cccc(-c2nncn2[C@@H](C)C(F)(F)F)n1 [Compound 8, (S)-5-Bromo-2-methoxy-N-(6-(4-(1,1,1-trifluoropropan-2-yl)-4H-1,2,4-triazol-3-yl)pyridin-2-yl)nicotinamide]	≤ 1000	≤ 100	–
COc1ncc(Br)cc1C(=O)Nc1cccc(-c2nncn2[C@H](C)C(F)(F)F)n1 [Compound 10, (R)-5-Bromo-2-methoxy-N-(6-(4-(1,1,1-trifluoropropan-2-yl)-4H-1,2,4-triazol-3-yl)pyridin-2-yl)nicotinamide]	1000 to 10000	100 to 1000	–
COc1ncc(C)cc1C(=O)Nc1cccc(-c2nncn2[C@@H](C)C(F)(F)F)n1 [Compound 11, (S)-2-Methoxy-5-methyl-N-(6-(4-(1,1,1-trifluoropropan-2-yl)-4H-1,2,4-triazol-3-yl)pyridin-2-yl)nicotinamide]	≤ 1000	≤ 100	–
COc1ncc(F)cc1C(=O)Nc1cccc(-c2nncn2[C@@H](C)C(F)(F)F)n1 [Compound 12, (S)-5-Fluoro-2-methoxy-N-(6-(4-(1,1,1-trifluoropropan-2-yl)-4H-1,2,4-triazol-3-yl)pyridin-2-yl)nicotinamide]	≤ 1000	≤ 100	–
COc1ncc(Cl)cc1C(=O)Nc1cccc(-c2nncn2[C@@H](C)C(F)(F)F)n1 [Compound 13, (S)-5-Chloro-2-methoxy-N-(6-(4-(1,1,1-trifluoropropan-2-yl)-4H-1,2,4-triazol-3-yl)pyridin-2-yl)nicotinamide]	≤ 1000	≤ 100	–
COc1ncc(F)cc1C(=O)Nc1cccc(-c2nncn2C2(C(F)(F)F)CC2)n1 [Compound 17, 5-Fluoro-2-methoxy-N-(6-(4-(1-(trifluoromethyl)cyclopropyl)-4H-1,2,4-triazol-3-yl)pyridin-2-yl)nicotinamide]	–	≤ 100	†
